Test results: patent US20230201124A1, “LUBRICANT FOR PHARMACEUTICALS AND NUTRACEUTICALS” (JRS Pharma GmbH & Co. KG, priority 2021, published 2023)

How the values were obtained:
[1] = Tablet hardness versus compression force of lubricated tablets; format: physicochemical; settings: for direction of change in tablet hardness: Example 8: lowest level/shortest blend time versus highest level/longest blend time
Method: Blends consisting of five separate levels of each lubricant type were prepared, with the lubricant blending time set for up to 60 minutes. After the addition of lubricant to the ibuprofen-MCC premix and the initiation of blending, a portion of each blend (enough to make a representative number of tablets) was withdrawn at each of 5 intervals (5, 15, 30, 45 and 60 minutes). […]
Tablet hardnesses and ejection forces were measure for each variant.

[2] = Lubricant-API stability of 1:1 aspirin-lubricant blends by NIR spectra; format: physicochemical; settings: all tested storage conditions, 2 months
Description: Example 9 is a study which examined the lubricant-API stability of rice bran wax, in comparison with magnesium stearate. Aspirin was chosen as a model API for the study. Magnesium stearate is known to interact unfavorably with aspirin. Aspirin also has a known tendency to convert to salicylic acid in the presence of moisture.
Aspirin and lubricant were ground together at a 1:1 ratio by weight with a glass mortar and pestle, then portioned into three vials which were labeled for room temperature (ambient) storage or for storage closed or open in a stability chamber at 40° C. and 75% RH. Near-IR (NIR) spectra were obtained periodically over two months of storage under these three different conditions.
FIG. 22 is an NIR spectra of the study components of Example 9, and provides the following depictions: aspirin (close dash), magnesium stearate (far dash), rice bran wax (solid) and salicylic acid (dotted). Near IR spectra were obtained on a Metrohm 6500 RCA (Rapid Content Analyzer) reflectance NIR (JRS #1219) and a standard normal variate (SNV) pre-processing routine was used to normalize the spectra for comparison.

[3] = Example 8: lowest level/shortest blend time versus highest level/longest blend time (1.0%, 60 min), at each compression force

Compound	direction of change in tablet hardness [1]	drop in tablet hardness [1, 3]	interaction between lubricant and aspirin [2]	tablet hardness ([1]; Example 8: 1% lubricant, 60 minute blend, FIG. 18)	drop in tablet hardness ([1]; Example 8: 15 kN compaction force, 0.125%/5 min versus 1.0%/60 min, FIG. 19)	tablet hardness ([1]; Example 8: highest lubricant level (1.0%), 5 minute blend, FIG. 17)
CCCCCCCCCCCCCCCCCCOC(=O)/C=C/C(=O)[O-].[Na+] [Pruv®, sodium stearyl fumarate]	drop in tablet hardness	< 3 N				
magnesium stearate	drop in tablet hardness	11-20 N	interacts with aspirin	softest tablets	~16 N	lower tablet hardness values than sodium stearyl fumarate and hydrogenated vegetable oil
